Experimental data: patent publication US8604217B2, “Compound, a process for its preparation, a pharmaceutical composition, use of a compound, a method for modulating or regulating serine/threonine kinases and a serine/threonine kinases modulating agent” (Selvita S.A., priority 2009, dated 2013)
Where two headings read alike, the source gives them in different places.

Key:
[1] = test system: human acute lymphocytic leukemia E6.1 Jurkat cells; test: Growth inhibition test (MTS) on E6.1 Jurkat cells; assay type: cell-based; settings: 72 hours, read-out: Jurkat ED50
Experimental: (§1) Twenty thousand cells of human acute lumphocytic leukemia E6.1 Jurkat were inoculated into each well of a 96-well microplate (manufactured by Corning Corp.) using RPMI 8226 medium (culture medium) containing 10% fetal calf serum (FCS). Next day, a dimethyl sulfoxide (DMSO) solution of each test compound prepared in a concentration of 10 mmol/L was further diluted with culture medium to the desired concentrations (0.1, 0.5, 1, 2.5, 5 and 10 micromol/L), and the diluted solution was added to each well. The individual wells were further cultured in 5% carbon dioxide at 37° C. for 72 hours. After completion of the culture, 10 μl MTS (3-(4,5-Dimethyl-2-thiazolyl)-5-(carboxymethoxyphenyl)-2-(4-sulfophenyl)-2H-tetrazolium, inner salt assay (CellTiter96® AQueous One Solution Cell Proliferation Assay, Promega) was added to each well, and culturing was performed in 5% carbon dioxide at 37° C. for 2 hours. Using a microplate spectrophotometer (Synergy 2 multi-mode microplate reader (BioTek)), the absorbance of each well was measured at 490 nm. The value for cells not incorporated with a test compound was designated as 100%. By comparing these values with the absorbance difference obtained at the well in which each test compound was added, the cell viability (% viability) after treatment with the test compound was calculated.

[2] = test system: human hepatoma HepG2 cells; test: Growth inhibition test (MTS) on HepG2 cells; assay type: cell-based; settings: 72 hours, read-out: HepG2 ED50
Experimental: as §1, with “Two” for “Twenty”, “hepatoma HepG2” for “acute lumphocytic leukemia E6.1 Jurkat”, “DMEM” for “RPMI 8226”

[3] = target: PIM-1 (Homo sapiens (Human), UniProt P11309); test: Luminometric kinase assay for PIM1 kinase (Kinase-Glo); assay type: biochemical; settings: 1 μM ATP, 25 min at RT
Experimental: Kinase assay was performed using luminescent Kinase-Glo® (Promega) system. The Kinase-Glo® Luminescent Kinase Assay Platform provides a homogeneous, high-throughput screening method for measuring kinase activity by quantifying the amount of ATP remaining in solution following a kinase reaction. The luminescent signal is correlated with the amount of ATP present and is inversely correlated with the kinase activity. Appropriate amounts of both kinase and substrate were mixed in 96-well, white wall plate in the reaction buffer (8 mM MOPS/NaOH, pH7.0, 0.2 mM EDTA, 2 mM MgCl2). Tested compounds were diluted in DMSO and serial dilutions starting with 1 μM were added to the palates. Reaction was initiated by adding 1 μM of ATP solution and conducted for 25 min. at RT. Luminescent signal was detected by adding Kinase-Glo® reagent and measured using a microplate spectrophotometer (Synergy 2 multi-mode microplate reader (BioTek)). IC50 values were obtained by fitting sigmoidal dose-response curve (variable slope) using GraphPad Prism software.

[4] = test system: human myelomonocytic, biphenotypic leukemia MV4-11 cells; test: Growth inhibition test (MTS) on MV4-11 cells; assay type: cell-based; settings: read-out: MV-4-11 ED50
Experimental: as §1, with “Ten” for “Twenty”, “myelomonocytic, biphenotypic” for “acute lumphocytic”, “MV4-11” for “E6.1 Jurkat”, “Iscove's MDM” for “RPMI 8226”

[5] = test system: human breast adenocarcinoma MCF7 cells; test: Growth inhibition test (MTS) on MCF7 cells; assay type: cell-based; settings: read-out: MCF-7 ED50
Experimental: as §1, with “Two” for “Twenty”, “breast adenocarcinoma MCF7” for “acute lumphocytic leukemia E6.1 Jurkat”, “Corp.), and” for “Corp.)”, “DMEM” for “RPMI 8226”

[6] = test system: human prostate adenocarcinoma PC3 cells; test: Growth inhibition test (MTS) on PC3 cells; assay type: cell-based; settings: for IC50: Homo sapiens, PC-3, 72 hours, read-out: PC-3 ED50
Description: as §1, with “Two” for “Twenty”, “prostate adenocarcinoma PC3” for “acute lumphocytic leukemia E6.1 Jurkat”, “Corp.), and” for “Corp.)”, “F12K (Ham's F12:[…]” for “RPMI”, “[…] 1:1)” for “8226”

[7] = test system: human colorectal adenocarcinoma SW480 cells; test: Growth inhibition test (MTS) on SW480 cells; assay type: cell-based; settings: read-out: SW480 ED50
Experimental: as §1, with “Two” for “Twenty”, “colorectal adenocarcinoma SW480” for “acute lumphocytic leukemia E6.1 Jurkat”, “Corp.), and” for “Corp.)”, “DMEM/Ham's F121:1” for “RPMI 8226”, “5%” for “10%”

Sequence of PIM-1 (P11309 whole entry): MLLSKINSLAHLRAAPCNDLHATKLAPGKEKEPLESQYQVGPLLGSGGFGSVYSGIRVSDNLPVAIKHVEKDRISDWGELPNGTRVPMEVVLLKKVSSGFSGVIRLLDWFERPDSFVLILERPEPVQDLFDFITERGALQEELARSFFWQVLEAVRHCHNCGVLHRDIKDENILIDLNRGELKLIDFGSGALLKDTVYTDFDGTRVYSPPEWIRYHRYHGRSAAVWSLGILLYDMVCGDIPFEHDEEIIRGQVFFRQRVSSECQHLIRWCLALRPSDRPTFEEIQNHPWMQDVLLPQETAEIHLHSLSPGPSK

SMILES | IC50 [1] [µM] | IC50 [2] [µM] | IC50 [3] [µM] | IC50 ([4]; Homo sapiens, MV4-11, 72 hours) [µM] | IC50 ([5]; Homo sapiens, MCF7, 72 hours) [µM] | IC50 [6] [µM] | IC50 ([7]; Homo sapiens, SW480, 72 hours) [µM] | IC50 ([7]; 72 hours) [µM] | IC50 ([5]; 72 hours) [µM] | PC-3 ED50 ([6]; 72 hours) [µM] | IC50 ([4]; 72 hours) [µM]
OC1CCC(Nc2nc3c(Br)c(Br)c(Br)c(Br)c3[nH]2)CC1 (stereo not drawn) [Compound 309, 4-(4,5,6,7-tetrabromo-1H-benzo[d]imidazol-2-ylamino)cyclohexanol] | 8.18 | 4.87 | 0.0159 | 5.54 |  |  |  |  |  |  | 
Brc1c(Br)c(Br)c2[nH]c(N3CCN(CCN4CCCCC4)CC3)nc2c1Br [Compound 76, 4,5,6,7-tetrabromo-2-(4-(2-(piperidin-1-yl)ethyl)piperazin-1-yl)-1H-benzo[d]imidazole] | 3.06 | 4.54 | 0.117 | 5.27 |  |  |  |  |  |  | 
CN(C)CCCN1CCN(c2nc3c(Br)c(Br)c(Br)c(Br)c3[nH]2)CC1 [Compound 75, 3-(4-(4,5,6,7-tetrabromo-1H-benzo[d]imidazol-2-yl)piperazin-1-yl)-N,N-dimethylpropan-1-amine] | 7.79 | 5.85 | 0.279 | 3.33 |  |  |  |  |  |  | 
Brc1c(Br)c(Br)c2[nH]c(N3CCOCC3)nc2c1Br [Compound 19, 4,5,6,7-tetrabromo-2-morpholino-1H-benzo[d]imidazole] | 4.63 |  | 0.0294 | 6.83 |  |  |  |  |  |  | 
Brc1c(Br)c(Br)c2[nH]c(N3CCN(Cc4cn5ccccc5n4)CC3)nc2c1Br [Compound 387, 2-(4-((H-imidazo[1,2-a]pyridin-2-yl)methyl)piperazin-1-yl)-4,5,6,7-tetrabromo-1H-benzo[d]imidazole] |  |  |  |  |  |  |  | 3.27 | 9.25 | 5.49 | 2.13
Fc1ccc(CNc2nc3c(Br)c(Br)c(Br)c(Br)c3[nH]2)cc1F [Compound 296, N-(3,4-difluorobenzyl)-4,5,6,7-tetrabromo-1H-benzo[d]imidazol-2-amine] | 8.12 | 5.91 | 0.17 | 4.15 |  | 4.21 |  |  |  |  | 

Further lines, with some results ahead:

IC50 [1] [µM] | IC50 [2] [µM] | IC50 [3] [µM] | IC50 ([4]; Homo sapiens, MV4-11, 72 hours) [µM] | IC50 ([5]; Homo sapiens, MCF7, 72 hours) [µM] | IC50 [6] [µM] | IC50 ([7]; Homo sapiens, SW480, 72 hours) [µM] | SMILES | IC50 ([7]; 72 hours) [µM] | IC50 ([5]; 72 hours) [µM] | PC-3 ED50 ([6]; 72 hours) [µM] | IC50 ([4]; 72 hours) [µM]
3.37 | 2.93 | 0.0257 | 1.54 |  |  |  | Brc1c(Br)c(Br)c2[nH]c(NCCCN3CCCC3)nc2c1Br [Compound 58] |  |  |  | 
6.12 | 9 |  | 6.84 |  |  |  | Oc1ccc(CCNc2nc3c(Br)c(Br)c(Br)c(Br)c3[nH]2)cc1 [Compound 243, 4-(2-(4,5,6,7-tetrabromo-1H-benzo[d]imidazol-2-ylamino)ethyl)phenol] |  |  |  | 
 | 7.12 | 0.0944 | 3.43 | 8.32 | 8.3 | 3.72 | OCCCN1CCN(c2nc3c(Br)c(Br)c(Br)c(Br)c3[nH]2)CC1 [Compound 383, 3-(4-(4,5,6,7-tetrabromo-1H-benzo[d]imidazol-2-yl)piperazin-1-yl)propan-1-ol] |  |  |  | 
 | 8.78 | 0.107 |  |  |  |  | Brc1c(Br)c(Br)c2[nH]c(NCCN3CCOCC3)nc2c1Br [Compound 16, 4,5,6,7-tetrabromo-N-(2-morpholinoethyl)-1H-benzo[d]imidazol-2-amine] | 9.68 |  |  | 
4.45 |  | 0.047 |  |  | 4.69 |  | Brc1c(Br)c(Br)c2[nH]c(Nc3ccccn3)nc2c1Br [Compound 329, 4,5,6,7-tetrabromo-N-(pyridin-2-yl)-1H-benzo[d]imidazol-2-amine] |  |  |  | 
7.67 | 6.23 | 0.0454 | 5.13 |  |  |  | Brc1c(Br)c(Br)c2[nH]c(NCCCN3CCOCC3)nc2c1Br [Compound 192, 4,5,6,7-tetrabromo-N-(3-morpholinopropyl)-1H-benzo[d]imidazol-2-amine] |  |  |  | 
 |  | 0.00672 | 7.55 |  | 4.48 | 1.85 | N=C(N)N1CCN(c2nc3c(Br)c(Br)c(Br)c(Br)c3[nH]2)CC1 [Compound 392, 4-(4,5,6,7-tetrabromo-1H-benzo[d]imidazol-2-yl)piperazine-1-carboxamidine] |  |  |  | 
